# Read-outs that look alike come from different tables or passages of the source.
# Columns and labels:
# HT-29 = assay: In vitro tumour cell cytotoxicity, colorimetric MTT assay, 72 h; assay type: cell-based, human; conditions: Homo sapiens, 72 h exposure, read-out: IC50
# P388 = assay: as above; assay type: cell-based, murine; conditions: Mus musculus, 72 h exposure, read-out: IC50
# [1] = tested on: murine B16F10 melanoma ascites tumour; assay: In vivo efficacy vs i.p. B16F10 melanoma ascites tumour; conditions: for %ILS (group mean increase in lifespan) / MST (mean survival time ± s.d.) / Per cent toxicity (mice with premature death) / Per cent cures (mice alive 60 days after inoculation): q.d., i.p., days 1-5 after inoculation, BDF1 mice
# [2] = tested on: human MX-1 xenograft solid tumour; conditions: for Delay (1.0 g) (footnote: delay to reach mean tumour mass = 0.5 g, compared with untreated) / Per cent cures (mice with no palpable tumours, day 60) / Per cent toxicity / TWI (per cent tumour weight inhibition when untreated control mean = 0.5 g): q.d., i.p., days 1-5 after inoculation, s.c. xenograft
# in vivo = conditions: male, CD-1, mouse, ip, 20 mg/kg
# B16F10 = assay: In vitro tumour cell cytotoxicity, colorimetric MTT assay, 72 h; assay type: cell-based, murine; conditions: Mus musculus, B16-F10, 72 h exposure, read-out: IC50
# breast tumour = tested on: breast tumour; parameters: method as in Holmes et al., 1991; conditions: breast tumour patients who had failed one previous course of chemotherapy; ref Holmes et al., 1991; cited from earlier work
# [3] = tested on: BDF mice bearing B16F10 ascites tumours; conditions: maximum dose yielding <20% lethality following five i.p. doses once daily
# ovarian tumours = tested on: ovarian tumours; parameters: method as in McGuire et al., 1989; conditions: ovarian tumours that had failed cisplatinum therapy; ref McGuire et al., 1989; cited from earlier work
# murine M109 solid tumour = assay: In vivo efficacy vs subcutaneous M109 solid tumour
# A549 = assay: In vitro tumour cell cytotoxicity, colorimetric MTT assay, 72 h; assay type: cell-based, human; conditions: Homo sapiens, 72 h exposure, read-out: IC50
# [4] = mouse, in vivo, ip, 20 mg/kg
# [5] = at non-toxic doses, i.p. once daily for 5 consecutive days
# [6] = dose 6.25 mg kg-1 per day, nude mice
# [7] = dose 12.5 mg kg-1 per day, nude mice
# [8] = dose 25 mg kg-1 per day, nude mice
# [9] = once daily on days 1-5 after inoculation
# [10] = dose 6.25 mg kg-1 per day, q.d., i.p., days 1, 5, 9 after inoculation, s.c. tumour, BDF1 mice
# [11] = dose 12.5 mg kg-1 per day, q.d., i.p., days 1, 5, 9 after inoculation, s.c. tumour, BDF1 mice
# [12] = dose 25 mg kg-1 per day, q.d., i.p., days 1, 5, 9 after inoculation, s.c. tumour, BDF1 mice
smiles,measurement,setting,value
"CC(=O)O[C@H]1C(=O)[C@@]2(C)[C@H]([C@H](OC(=O)c3ccccc3)[C@]3(O)C[C@H](OC(=O)[C@H](O)[C@@H](NC(=O)c4ccccc4)c4ccccc4)C(C)=C1C3(C)C)[C@]1(OC(C)=O)CO[C@@H]1C[C@@H]2O [Paclitaxel, reference compound]",IC50,HT-29,2.7 ng/mL
same,IC50,P388,9.9 ng/mL
same,Cure rate at optimal non-toxic dose,[1]; [5],0%
same,Optimal increase in life span (ILS),[1]; [5],96%
same,%ILS (group mean increase in lifespan),[1]; dose 6.25 mg kg-1 per day,34%
same,MST (mean survival time ± s.d.),[1]; dose 6.25 mg kg-1 per day,26.4 ± 3.4 days
same,Per cent toxicity (mice with premature death),[1]; dose 6.25 mg kg-1 per day,0%
same,%ILS (group mean increase in lifespan),[1]; dose 12.5 mg kg-1 per day,34%
same,Per cent cures (mice alive 60 days after inoculation),[1]; dose 12.5 mg kg-1 per day,0%
same,Per cent toxicity (mice with premature death),[1]; dose 12.5 mg kg-1 per day,0%
same,%ILS (group mean increase in lifespan),[1]; dose 25 mg kg-1 per day,96%
same,MST (mean survival time ± s.d.),[1]; dose 25 mg kg-1 per day,38.6 ± 4.8 days
same,Per cent cures (mice alive 60 days after inoculation),[1]; dose 25 mg kg-1 per day,0%
same,Per cent toxicity (mice with premature death),[1]; dose 25 mg kg-1 per day,0%
same,Optimal dose,[1]; i.p. once daily for 5 consecutive days,25 mg/kg/day
same,Optimal dose,"[2]; administered on days 1-5 after inoculation, nude mice",12.5 mg kg-1 per dose
same,Tumour weight inhibition (TWI) when untreated mice had a mean tumour mass of 0.5 g,"[2]; analogues optimally, paclitaxel at non-toxic doses",80%
same,"Delay (1.0 g) (footnote: delay to reach mean tumour mass = 0.5 g, compared with untreated)",[2]; [6],1.4 days
same,"Per cent cures (mice with no palpable tumours, day 60)",[2]; [6],0%
same,Per cent toxicity,[2]; [6],0%
same,TWI (per cent tumour weight inhibition when untreated control mean = 0.5 g),[2]; [6],42%
same,"Delay (1.0 g) (footnote: delay to reach mean tumour mass = 0.5 g, compared with untreated)",[2]; [7],13.4 days
same,"Per cent cures (mice with no palpable tumours, day 60)",[2]; [7],10%
same,Per cent toxicity,[2]; [7],0%
same,TWI (per cent tumour weight inhibition when untreated control mean = 0.5 g),[2]; [7],80%
same,"Delay (1.0 g) (footnote: delay to reach mean tumour mass = 0.5 g, compared with untreated)",[2]; [8],19.1 days
same,"Per cent cures (mice with no palpable tumours, day 60)",[2]; [8],30%
same,Per cent toxicity,[2]; [8],40%
same,TWI (per cent tumour weight inhibition when untreated control mean = 0.5 g),[2]; [8],100%
same,Cure rate,[2]; [9],10%
same,Delay in tumour growth compared with untreated controls,[2]; [9],13.4 days
same,Tmax,in vivo,1.5 h
same,half-life,in vivo,2.9 h
same,IC50,B16F10,4.9 ng/mL
same,Response rate,breast tumour,48%
same,MTD (q.d. days 1-5),[3],25 mg kg-1 per day
same,Response rate,ovarian tumours,30%
same,Tumour weight inhibition (TWI) when untreated mice had a mean tumour mass of 1 g,murine M109 solid tumour,47%
same,"Delay (1.0 g): delay to reach mean tumour mass = 1.0 g, compared with untreated",murine M109 solid tumour; [10],0.4 days
same,"Per cent cures (mice with no palpable tumours, day 60)",murine M109 solid tumour; [10],0%
same,Per cent toxicity,murine M109 solid tumour; [10],0%
same,TWI (per cent tumour weight inhibition when untreated control mean = 1.0 g),murine M109 solid tumour; [10],22%
same,Days (1.0 g): days to reach mean tumour mass = 1.0 g ± s.d.,murine M109 solid tumour; [11],12.6+ 1.0 days
same,"Delay (1.0 g): delay to reach mean tumour mass = 1.0 g, compared with untreated",murine M109 solid tumour; [11],0.6 days
same,"Per cent cures (mice with no palpable tumours, day 60)",murine M109 solid tumour; [11],0%
same,Per cent toxicity,murine M109 solid tumour; [11],0%
same,TWI (per cent tumour weight inhibition when untreated control mean = 1.0 g),murine M109 solid tumour; [11],40%
same,"Delay (1.0 g): delay to reach mean tumour mass = 1.0 g, compared with untreated",murine M109 solid tumour; [12],0.9 days
same,"Per cent cures (mice with no palpable tumours, day 60)",murine M109 solid tumour; [12],0%
same,Per cent toxicity,murine M109 solid tumour; [12],30%
same,TWI (per cent tumour weight inhibition when untreated control mean = 1.0 g),murine M109 solid tumour; [12],47%
same,Delay in solid tumour growth to 1 g,murine M109 solid tumour; paclitaxel at a non-toxic dose,0.6 days
same,IC50,A549,3.4 ng/mL
same,AUC,[4],42.53 ig per h ml-1
same,AUC value (rounded),[4],43 jg h-1 ml-1
same,Cmax,[4],14.13 ig ml-1
same,Cmax (rounded),[4],14 jg ml-1

# — PMC2074348, “Preclinical in vivo efficacy of two 9-dihydrotaxane analogues against human and murine tumours” (British Journal of Cancer, 1996)
